Patent US9809586B2, “Inhibitors of collagen prolyl 4-hydroxylase” (WISCONSIN ALUMNI RESEARCH FOUNDATION, priority 2015, dated 2017)

Experiments:
[1] = titration of 20 μM FeSO4; bipy; read-out: Fe20-EC50; cited from earlier work
[2] = cited from earlier work
[3] = tested on: IRPs; assay: Electrophoretic mobility shift assay for IRE-binding by IRPs from treated cells; type: cell-based, human; details: treated MDA-MB-231 cells, 24 h, radiolabeled RNA ligand
Protocol: The resultant pellets (˜50 μL) were washed with PBS and then lysed using a protocol described previously.^41 Briefly, cell pellets were resuspended in 200 μL of cell lysis buffer, which was 20 mM Hepes-HCl buffer, pH 7.4, containing sodium pyrophosphate (10 mM), sodium fluoride (50 mM), β-glycerophosphate (50 mM), EDTA (5 mM), GTP (1 mM), sodium orthovanadate (1 mM), benzamidine hydrochloride (2 mM), Nonidet NP-40 (0.5% v/v), p-nitrophenyl p′-guanidinobenzoate-HCl (25 μg/mL), DTT (1 mM), leupeptin (40 μg/mL), pepstatin (4 μg/mL), SBTI (100 μg/mL), MG132 (10 μM), PMSF (200 μM), and BHT (5 μg/mL) by vortexing and lysed on ice by vortexing every few min. After 15 min, the lysates were centrifuged at 14,000 rpm and the supernatants aliquoted and stored at −80° C. until analysis by an electrophoretic mobility shift assay (EMSA).
EMSAs were performed and quantified essentially as described previously.^42 Briefly [^32P]-L-ferritin IRE (1 nM RNA, specific radioactivity ˜7,000 dpm/fmol) was incubated with lysate protein (2.5 μg as determined by the Bradford assay) in binding buffer for 10 min on ice. Heparin was added (to 0.5 mg/mL), and the reaction mixture was incubated for an additional 5 min on ice before separating bound and free RNA on a nondenaturing polyacrylamide gel at ambient temperature.

[4] = tested on: breast cancer; details: mouse model of breast cancer, Gilkes et al.; cited from earlier work
[5] = tested on: MDA-MB-231 cells; details: 500 μM; cited from earlier work
[6] = molecular target: T1, human CP4H1 (Homo sapiens, UniProt P13674); assay: Assay of human CP4H1 activity in the presence of inhibitors; type: biochemical
T1 construct: made in house; host or cells: Origami B(DE3) Escherichia coli
T1 sequence (P13674 18-534): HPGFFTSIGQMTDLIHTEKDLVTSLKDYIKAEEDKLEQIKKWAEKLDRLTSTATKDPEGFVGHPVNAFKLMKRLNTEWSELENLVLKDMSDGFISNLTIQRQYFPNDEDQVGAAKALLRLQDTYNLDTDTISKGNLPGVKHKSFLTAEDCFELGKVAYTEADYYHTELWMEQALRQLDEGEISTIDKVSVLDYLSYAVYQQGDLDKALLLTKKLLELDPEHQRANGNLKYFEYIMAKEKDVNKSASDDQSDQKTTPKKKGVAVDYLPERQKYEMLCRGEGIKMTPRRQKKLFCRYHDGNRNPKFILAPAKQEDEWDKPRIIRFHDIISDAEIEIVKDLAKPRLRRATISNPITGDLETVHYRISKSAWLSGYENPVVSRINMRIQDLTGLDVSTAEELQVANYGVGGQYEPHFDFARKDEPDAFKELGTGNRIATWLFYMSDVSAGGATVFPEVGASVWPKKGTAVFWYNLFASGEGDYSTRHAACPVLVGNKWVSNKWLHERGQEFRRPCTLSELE
T1 sequence (P07237 18-508 partner): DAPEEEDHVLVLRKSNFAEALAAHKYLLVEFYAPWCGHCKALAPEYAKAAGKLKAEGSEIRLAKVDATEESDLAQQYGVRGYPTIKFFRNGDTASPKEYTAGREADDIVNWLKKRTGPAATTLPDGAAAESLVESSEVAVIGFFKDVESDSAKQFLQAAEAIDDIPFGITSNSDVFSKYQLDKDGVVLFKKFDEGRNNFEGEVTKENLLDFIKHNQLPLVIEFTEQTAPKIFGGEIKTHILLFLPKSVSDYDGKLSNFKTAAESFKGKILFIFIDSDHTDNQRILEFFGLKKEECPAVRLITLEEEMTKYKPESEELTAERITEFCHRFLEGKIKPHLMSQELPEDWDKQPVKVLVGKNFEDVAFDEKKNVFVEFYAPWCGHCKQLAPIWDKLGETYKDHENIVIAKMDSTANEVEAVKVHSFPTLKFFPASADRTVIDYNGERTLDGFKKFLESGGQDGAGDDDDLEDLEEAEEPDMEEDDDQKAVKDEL
Protocol: The catalytic activity of human CP4H1 was assayed as described previously.^35 Briefly, activity assays were carried out at 30° C. in 100 μL Tris-HCl buffer, pH 7.8, containing human CP4H1 (100 nM), inhibitor (0-500 μM), substrate (dansylGlyProProGlyOEt, 500 μM), FeSO4 (50 μM), BSA (1 mg/mL), catalase (0.1 mg/mL), sodium ascorbate (2 mM), DTT (100 μM), and α-ketoglutarate (100 μM). Reactions were pre-incubated with or without inhibitor for 2 min at 30° C., after which the reaction was initiated by the addition of α-ketoglutarate. After 15 min, reactions were quenched by boiling for 45 s and centrifuged at 10,000 g. The supernatant (20-50 μL) was injected into a Nucleodur® C18 Gravity reversed-phase column (4.6×250 mm, 5 μm particle size) from Macherey-Nagel (Bethlehem, Pa.). The column was eluted at 1 mL/min with a gradient (20 min) of aqueous acetonitrile (20-45% v/v) containing 0.1% v/v TFA. The absorbance of the eluent was monitored at 289 nm. All assays were performed in triplicate. Data are reported as activity relative to control reactions lacking inhibitor, where catalytic activity is determined from the percent conversion of substrate to product. Dose-response curves were generated for each inhibitor by plotting the relative activity versus the log of the inhibitor concentration. IC50-values for each inhibitor were interpolated from the data by non-linear regression using the sigmoidal dose-response function available in Prism.

[7] = molecular target: T2, human PHD2 (Homo sapiens, UniProt Q9GZT9); assay: Assay of human PHD2 activity in the presence of inhibitors; type: biochemical; details: 10 μM compound
T2 construct: made in house
T2 sequence (Q9GZT9 181-426 limits assumed): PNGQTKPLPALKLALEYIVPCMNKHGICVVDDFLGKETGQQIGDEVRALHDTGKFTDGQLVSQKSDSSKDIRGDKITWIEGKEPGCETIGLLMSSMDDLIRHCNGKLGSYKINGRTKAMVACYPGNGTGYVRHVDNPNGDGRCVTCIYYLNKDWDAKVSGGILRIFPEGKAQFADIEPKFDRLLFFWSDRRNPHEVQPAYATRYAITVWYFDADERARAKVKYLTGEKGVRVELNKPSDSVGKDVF
Protocol: The catalytic activity of human PHD2 was assayed as described previously.^36 Briefly, activity assays were carried out at 30° C. in 100 μL Tris-HCl buffer, pH 7.8, containing human NHis6-PHD2181-426 (5 μM), inhibitor (0-50 μM), substrate (HIF-1α peptide556-574, 50 μM), FeSO4 (50 μM), BSA (1 mg/mL), catalase (0.3 mg/mL), sodium ascorbate (2 mM), DTT (1 mM), and α-ketoglutarate (35 μM). Reactions mixtures were pre-incubated with or without inhibitor for 2 min at 30° C., after which the reaction was initiated by the addition of α-ketoglutarate. After 10 minutes, reactions were quenched by boiling for 60 s and centrifuged at 10,000 g. The supernatant (50 μL) was injected into a Nucleodur® C18 Gravity reversed-phase column (4.6×250 mm, 5 μm particle size) from Macherey-Nagel (Bethlehem, Pa.). The column was eluted at 1 mL/min with a gradient (34 min) of 5-56% aqueous acetonitrile containing 0.1% v/v TFA. The absorbance of the eluent was monitored at 218 nm. All assays were performed in triplicate. Data is reported as activity relative to control reactions lacking inhibitor, where activity is determined from the percent conversion of substrate to product.

SMILES | EC50 [1] [µM] | Heteroaryl pKa (ref.) ([2]; conjugate acid of pyridine (bipy) or the nonpyridyl ring) | pKa ([2]; conjugate acid of the entire compound, bipy) | RNA binding by IRPs [3] | Tumor fibrosis and metastasis [4] | Collagen secretion [5] | Inhibition of catalytic activity of human CP4H1 in initial screen ([6]; 10 μM compound, 50 μM FeSO4) | IC50 ([6]; dose-response, mean of three independent experiments) [µM] | Potency relative to pyoxDC ([6]; from dose-response IC50 values) | Inhibition of human PHD2 in screen [7]
c1ccc(-c2ccccn2)nc1 [bipy, 2,2′-bipyridine, reference compound] | 43 ± 2 | 5.2 (48) | 4.3 | significant increases | – | – | – | – | – | –
CCOC(=O)c1ccc(O)c(O)c1 [EDHB, Ethyl dihydroxybenzoate] | – | – | – | significant increases | decreases tumor fibrosis and metastasis | diminish collagen secretion significantly | – | – | – | –
O=C(O)c1ccc(-c2ncc(C(=O)O)[nH]2)nc1 [pyimDC, 2-(5-Carboxy-1-H-imidazol-2-yl)pyridine-5-carboxylic Acid] | – | – | – | – | – | – | inhibitors | 2.6 ± 0.1 | approximately 10 fold | only weakly
